Counter-ions that a name gives are not always drawn.
System: CK-1 male mice
Test: climbing mice assay (apomorphine-induced climbing), antipsychotic activity
Format: in vivo
Conditions: 30 minutes prior to apomorphine 1.5 mg/kg subcutaneously, climbing scores totaled over readings at 10, 20 and 30 minutes, control group set to 100%
Description: Antipsychotic activity is determined in the climbing mice assay by methods similar to those described by P. Protais, et al., Psychopharmacol., 50, 1 (1976) and B. Costall, Eur. J. Pharmacol., 50, 39 (1978).
The subject CK-1 male mice (23-27 grams) are group-housed under standard laboratory conditions. The mice are individually placed in wire mesh stick cages (4" x 4" by 10") and are allowed one hour for adaptation and exploration of the new environment. Then apomorphine is injected subcutaneously at 1.5 mg/kg, a dose causing climbing in all subjects for 30 minutes. Compounds to be tested for antipsychotic activity are injected intraperitoneally 30 minutes prior to the apomorphine challenge at a screening dose of 10mg/kg.
For evaluation of climbing, 3 readings are taken at 10,20 and 30 minutes after apomorphine administration according to the following scale:
Mice consistently climbing before the injection of apomorphine are discarded.
With full-developed apomporphine climbing, the animals are hanging onto the cage walls, rather motionless, over longer periods of time. By contrast, climbs due to mere motor stimulation usually last only a few seconds.
The climbing scores are individually totaled (maximum score: 6 per mouse over 3 readings) and the total score of the control group (vehicle intraperitoneally-apomorphine subcutaneously) is set to 100%. ED₅₀ value with 95% confidence limits, calculated by a linear regression analysis of some of the compounds of this invention.

Row | SMILES | Antipsychotic Activity Score (Dose 9.5 mg/kg ip) | Antipsychotic Activity Score (Dose 20 mg/kg ip)
1 | CC1SC(C)(C)C(=O)N1CCCCN1CCC(c2csc3ccccc23)CC1.O=C(O)/C=C\C(=O)O (stereo not drawn) [3-[4-[4-(Benzo[b]thien-3-yl)-1-piperidinyl]butyl]-2,5,5-trimethyl-4-thiazolidinone maleate] | 50% | –
2 | CC1SC(C)(C)C(=O)N1CCCCN1CCC(c2cc3ccccc3s2)CC1 (stereo not drawn) [3-[4-[4-[Benzo[b]thien-2yl)-1-piperidinyl[butyl]-2,5,5-trimethyl-4-thiazolidinone hydrochloride] | – | 44%
3 | CC1(C)C(=O)N(CCCCN2CCC(c3csc4ccccc34)CC2)CS1(=O)=O [3-[4-[4-[Benzo[b]thien-3-yl)-1-piperidinyl]butyl]-5,5-dimethyl-1,1-dioxo-4-thiazolidinone] | – | 98%

Reference: patent EP0699675A2, “3-(4-(1-Substituted-4-piperazinyl)butyl)-4-thiazolidinone and related compounds” (HOECHST-ROUSSEL PHARMACEUTICALS INCORPORATED, priority 1994, dated 1996)
